Measurements reported in the NIST ThermoML archive (doi:10.1021/je060339m).

Conditions: Liquid

CCCCCOC(C)=O [pentyl ethanoate]
Conditions	mass density [kg/m3]
298.15 K, 100 kPa	871.4
298.15 K, 1000 kPa	871.9
298.15 K, 2000 kPa	872.7
298.15 K, 2700 kPa	873.3
298.15 K, 3000 kPa	873.5
298.15 K, 5000 kPa	875.3
298.15 K, 10000 kPa	879.1
298.15 K, 15000 kPa	882.7
298.15 K, 20000 kPa	886.2
298.15 K, 25000 kPa	889.6
298.15 K, 30000 kPa	893.6
298.15 K, 35000 kPa	897.9
303.15 K, 100 kPa	866.5
303.15 K, 1000 kPa	867.1
303.15 K, 2000 kPa	867.9
303.15 K, 2700 kPa	868.5
303.15 K, 3000 kPa	868.7
303.15 K, 5000 kPa	870.5
303.15 K, 10000 kPa	874.4
303.15 K, 15000 kPa	878.1
303.15 K, 20000 kPa	881.6
303.15 K, 25000 kPa	885.1
303.15 K, 30000 kPa	889.4
303.15 K, 35000 kPa	893.8
308.15 K, 100 kPa	861.6
308.15 K, 1000 kPa	862.2
308.15 K, 2000 kPa	863.1
308.15 K, 2700 kPa	863.7
308.15 K, 3000 kPa	863.9
308.15 K, 5000 kPa	865.8
308.15 K, 10000 kPa	869.8
308.15 K, 15000 kPa	873.6
308.15 K, 20000 kPa	877.3
308.15 K, 25000 kPa	880.8
308.15 K, 30000 kPa	885.2
308.15 K, 35000 kPa	889.7
313.15 K, 100 kPa	856.7
313.15 K, 1000 kPa	857.4
313.15 K, 2000 kPa	858.3
313.15 K, 2700 kPa	858.9
313.15 K, 3000 kPa	859.2
313.15 K, 5000 kPa	861
313.15 K, 10000 kPa	865.2
313.15 K, 15000 kPa	869
313.15 K, 20000 kPa	872.8
313.15 K, 25000 kPa	876.4
313.15 K, 30000 kPa	880.9
313.15 K, 35000 kPa	885.5
318.15 K, 100 kPa	851.9
318.15 K, 1000 kPa	852.6
318.15 K, 2000 kPa	853.5
318.15 K, 2700 kPa	854.2
318.15 K, 3000 kPa	854.4
318.15 K, 5000 kPa	856.4
318.15 K, 10000 kPa	860.7
318.15 K, 15000 kPa	864.7
318.15 K, 20000 kPa	868.5
318.15 K, 25000 kPa	872.3
318.15 K, 30000 kPa	876.9
318.15 K, 35000 kPa	881.7
323.15 K, 100 kPa	847.1
323.15 K, 1000 kPa	847.7
323.15 K, 2000 kPa	848.7
323.15 K, 2700 kPa	849.3
323.15 K, 3000 kPa	849.6
323.15 K, 5000 kPa	851.7
323.15 K, 10000 kPa	856.1
323.15 K, 15000 kPa	860.2
323.15 K, 20000 kPa	864.2
323.15 K, 25000 kPa	868.1
323.15 K, 30000 kPa	872.8
323.15 K, 35000 kPa	877.6
328.15 K, 100 kPa	842.3
328.15 K, 1000 kPa	843.2
328.15 K, 2000 kPa	844.4
328.15 K, 2700 kPa	845.2
328.15 K, 3000 kPa	845.5
328.15 K, 5000 kPa	847.1
328.15 K, 10000 kPa	851.6
328.15 K, 15000 kPa	855.9
328.15 K, 20000 kPa	860
328.15 K, 25000 kPa	864.1
328.15 K, 30000 kPa	869
328.15 K, 35000 kPa	874
333.15 K, 100 kPa	837.8
333.15 K, 1000 kPa	838.7
333.15 K, 2000 kPa	839.8
333.15 K, 2700 kPa	840.5
333.15 K, 3000 kPa	840.8
333.15 K, 5000 kPa	842.7
333.15 K, 10000 kPa	847.4
333.15 K, 15000 kPa	851.8
333.15 K, 20000 kPa	856
333.15 K, 25000 kPa	860.1
333.15 K, 30000 kPa	865.1
333.15 K, 35000 kPa	870.2
338.15 K, 100 kPa	832.9
338.15 K, 1000 kPa	834
338.15 K, 2000 kPa	835.1
338.15 K, 2700 kPa	835.8
338.15 K, 3000 kPa	836.1
338.15 K, 5000 kPa	838.1
338.15 K, 10000 kPa	842.9
338.15 K, 15000 kPa	847.5
338.15 K, 20000 kPa	851.9
338.15 K, 25000 kPa	856.2
338.15 K, 30000 kPa	861.3
338.15 K, 35000 kPa	866.5
343.15 K, 100 kPa	828.3
343.15 K, 1000 kPa	829.3
343.15 K, 2000 kPa	830.4
343.15 K, 2700 kPa	831.2
343.15 K, 3000 kPa	831.5
343.15 K, 5000 kPa	833.5
343.15 K, 10000 kPa	838.5
343.15 K, 15000 kPa	843.2
343.15 K, 20000 kPa	847.7
343.15 K, 25000 kPa	852.1
343.15 K, 30000 kPa	857.3
343.15 K, 35000 kPa	862.7
348.15 K, 100 kPa	823.2
348.15 K, 1000 kPa	824.6
348.15 K, 2000 kPa	825.7
348.15 K, 2700 kPa	826.5
348.15 K, 3000 kPa	826.9
348.15 K, 5000 kPa	828.8
348.15 K, 10000 kPa	834
348.15 K, 15000 kPa	838.9
348.15 K, 20000 kPa	843.5
348.15 K, 25000 kPa	847.9
348.15 K, 30000 kPa	853.3
348.15 K, 35000 kPa	858.8
353.15 K, 100 kPa	818.7
353.15 K, 1000 kPa	819.9
353.15 K, 2000 kPa	821.1
353.15 K, 2700 kPa	821.9
353.15 K, 3000 kPa	822.3
353.15 K, 5000 kPa	824.4
353.15 K, 10000 kPa	829.8
353.15 K, 15000 kPa	835
353.15 K, 20000 kPa	839.7
353.15 K, 25000 kPa	844.3
353.15 K, 30000 kPa	849.8
353.15 K, 35000 kPa	855.4
358.15 K, 100 kPa	811.3
358.15 K, 1000 kPa	812.2
358.15 K, 2000 kPa	813.4
358.15 K, 2700 kPa	814.1
358.15 K, 3000 kPa	814.5
358.15 K, 5000 kPa	816.9
358.15 K, 10000 kPa	822.5
358.15 K, 15000 kPa	827.7
358.15 K, 20000 kPa	832.5
358.15 K, 25000 kPa	838
358.15 K, 30000 kPa	843.9
358.15 K, 35000 kPa	849.7
363.15 K, 100 kPa	806.3
363.15 K, 1000 kPa	807.4
363.15 K, 2000 kPa	808.7
363.15 K, 2700 kPa	809.6
363.15 K, 3000 kPa	809.9
363.15 K, 5000 kPa	812.4
363.15 K, 10000 kPa	818.1
363.15 K, 15000 kPa	823.4
363.15 K, 20000 kPa	828.3
363.15 K, 25000 kPa	833.9
363.15 K, 30000 kPa	839.9
363.15 K, 35000 kPa	845.6
368.15 K, 100 kPa	801.2
368.15 K, 1000 kPa	802.3
368.15 K, 2000 kPa	803.7
368.15 K, 2700 kPa	804.6
368.15 K, 3000 kPa	805
368.15 K, 5000 kPa	807.5
368.15 K, 10000 kPa	813.4
368.15 K, 15000 kPa	818.8
368.15 K, 20000 kPa	824
368.15 K, 25000 kPa	829.8
368.15 K, 30000 kPa	835.9
368.15 K, 35000 kPa	841.4
373.15 K, 100 kPa	795.5
373.15 K, 1000 kPa	796.4
373.15 K, 2000 kPa	797.7
373.15 K, 2700 kPa	799.5
373.15 K, 3000 kPa	799
373.15 K, 5000 kPa	802.5
373.15 K, 10000 kPa	808.2
373.15 K, 15000 kPa	813.9
373.15 K, 20000 kPa	819.8
373.15 K, 25000 kPa	826.3
373.15 K, 30000 kPa	831.3
378.15 K, 100 kPa	790.4
378.15 K, 1000 kPa	791.6
378.15 K, 2000 kPa	793.1
378.15 K, 2700 kPa	794
378.15 K, 3000 kPa	794.4
378.15 K, 5000 kPa	797.1
378.15 K, 10000 kPa	803.5
383.15 K, 100 kPa	786.8
383.15 K, 1000 kPa	788.1
383.15 K, 2000 kPa	789.6
383.15 K, 2700 kPa	790.7
383.15 K, 3000 kPa	791.1
383.15 K, 5000 kPa	793.9
383.15 K, 10000 kPa	800.5
383.15 K, 15000 kPa	806.6
383.15 K, 20000 kPa	811.7
383.15 K, 25000 kPa	816.5
383.15 K, 30000 kPa	824
383.15 K, 35000 kPa	830
388.15 K, 100 kPa	781.9
388.15 K, 1000 kPa	783.4
388.15 K, 2000 kPa	785
388.15 K, 2700 kPa	786
388.15 K, 3000 kPa	786.5
388.15 K, 5000 kPa	789.4
388.15 K, 10000 kPa	796.3
388.15 K, 15000 kPa	802.5
388.15 K, 20000 kPa	808.1
388.15 K, 25000 kPa	813.7
388.15 K, 30000 kPa	819.7
388.15 K, 35000 kPa	826.2
393.15 K, 100 kPa	777.2
393.15 K, 1000 kPa	778.7
393.15 K, 2000 kPa	780.3
393.15 K, 2700 kPa	781.4
393.15 K, 3000 kPa	781.9
393.15 K, 5000 kPa	784.9
393.15 K, 10000 kPa	791.9
393.15 K, 15000 kPa	798.4
393.15 K, 20000 kPa	803.9
393.15 K, 25000 kPa	809.7
393.15 K, 30000 kPa	815.7
393.15 K, 35000 kPa	822.2
